# Columns and labels:
# [1] = tested on: MSCs (Lin− CD90+CD44hi cells); assay: Pharmacological disinhibition of the dorsomedial regions of the tuberal hypothalamus: blood cells by flow cytometry; format: in vivo, rat; conditions: rats
# Method: Adult male Sprague-Dawley rats (300-350 g; Harlan Laboratories, Indianapolis, Ind.), were housed in plastic cages under standard environmental conditions (22° C.; 12/12 light/dark cycle; lights on at 7:00 A.M.) for 7-10 days prior to the surgical manipulations. Food and water were provided ad libitum. All experiments were conducted in accordance with the Guide for the Care and Use of Laboratory Animals, 8th Edition (Institute for Laboratory Animal Research, The National Academies Press, Washington, D.C., 2011) and the guidelines of the IUPUI Institutional Animal Care and Use Committee.
# Once rats were anesthetized with an isoflurane system (MGX Research Machine; Vetamic, Rossville, Ind.), they were placed in a small animal stereotaxic frame (Model 963 Ultra Precise Frame, Kopf, Tujunga, Calif.). […]
# [2] = tested on: plasma NE; conditions: rats
# Method: (§1) Sprague-Dawley rats were injected with epinephrine (SO, El Monte, Ca) intraperitoneally at 50 μg/kg. Uninjected rats were used as baseline controls. Rats were euthanized at 2, 4, and 6 hours post injection. Blood was collected and processed for flow cytometry as described below. A separate cohort of rats was injected IP with 50 mg/kg dopamine for 4 days consecutively. After last injection, rats were euthanized at 2 and 4 hours post injection. Blood was collected and processed for flow cytometry as described below.
# NE levels were measured in EA-treated horses using NE ELISA kit (ALPCO™, Salem, N.H.) according to the manufacturer's instructions. Plasma NE, Epi and DA levels were measured in EA treated rats using the TriCAT ELISA kit (ALPCO™).
# [3] = tested on: rat MSCs (Lin− CD90+CD44hi cells); conditions: rats
# Method: as §1
# PBMCs were isolated using lympholyte M (Cedarlene, Ontario, Canada) density gradient separation and centrifuged at room temperature at 740×g for 30 minutes.
# PBMCs were stained with the MPFC protocols in real-time within 24 h after blood collection at the Angio BioCore, IUPUI, for the identification of MSCs as previously described.^50-53 23 PBMCs were incubated with Fc blocking reagent (Miltenyi Biotec or BD biosciences) for 10 minutes on ice and stained as published^50. Cells were incubated with titrated antibodies for 30 minutes at 4° C., washed twice in PBS with 2% FBS, fixed in 1% paraformaldehyde (Tousimis, Rockville, Md.), and run on a BD LSRII flow cytometer (BD) equipped with a 405 nm violet laser, 488 nm blue laser and 633 nm red laser. Data were acquired uncompensated and exported as FCS 3.0 files, and analyzed utilizing FlowJo software, version 9.7.5 or version X (Tree Star, Inc, Ashland, Oreg.). “Fluorescent minus one” (FMO) gating controls were used to ensure proper gating of positive events^50,52,54. In order to resolve the rare and/or dim populations of interest, specific antigen and fluorochrome conjugate coupling was optimized for the six-antibody plus a viability marker staining panel^50-54. BD compBeads (BD Biosciences) were used for color compensations.
# Rat MSC were gated sequentially on FMO gates for LIVE/DEAD^−CD45^−erythroid cells^−CD31^−CD11b^− CD90^+CD44H^+ cells.
# [4] = tested on: MSCs; assay: Propranolol pretreatment before EA: MSC mobilization; format: in vivo, mice
# Text: Blood was collected and processed for flow cytometry as described below.
structure (smiles),measurement,setting,value
C[N+]1(C)CCc2cc3c(cc2[C@H]1[C@@H]1OC(=O)c2c1ccc1c2OCO1)OCO3.[I-] [bicuculline methiodide],total number of cells in the blood,"[1]; 30 pmol into tuberal hypothalamus, p=0.412",did not alter
same,percentage of MSCs (Lin− CD90+CD44hi cells),"[1]; highest dose 50 pmol, 4 hours post injection, p=0.027",did increase
NCCc1ccc(O)c(O)c1 [dopamine],NE levels,[2]; dopamine 50 mg/kg for 4 consecutive days,pointed increase
same,time of peak in plasma NE concentration post administration,[2]; dopamine IP,2 h
same,time of increase in circulating MSCs,[3]; dopamine IP,2 h
CNC[C@H](O)c1ccc(O)c(O)c1 [epinephrine],MSCs in peripheral blood,"[3]; epinephrine 50 μg/kg intraperitoneally, vs uninjected baseline, p=0.0125",significant elevation
same,time of increase of rat MSCs in the circulation,[3]; epinephrine IP,6 h
CC(C)NCC(O)COc1cccc2ccccc12 (stereo not drawn) [propranolol],mobilization of MSCs by EA,"[4]; mice pretreated for 24 hours prior to EA, p<0.01",prevented
same,MSC mobilization by EA,"[4]; pretreatment, at 4 hours, compared to untreated animals, p=0.01",inhibited

# From patent publication US11654159B2, “Therapeutic use of electroacupuncture-induced mesenchymal stem cells” (UNIVERSITY OF FLORIDA RESEARCH FOUNDATION, INC., priority 2016, dated 2023)
